Measured values as given in patent publication US20210196838A1, “COMPOUNDS AND COMPOSITIONS FOR POTENTIATION OF TLR AGONISTS” (priority 2018, published 2021).

Assays:
[1] = tested on: vesicular stomatitis virus-green fluorescent protein (VSV-GFP); format: cell-based
viral infection = details: free agonist dosing provided by Zhao et. al, 2012; cited from earlier work
[2] = tested on: rainbow trout gut cells (RT-gut); assay: Uptake of fluorescently labelled poly IC in RT-gut cells; format: cell-based; details: 1 ug/ml, 20 degree treatment, 4 hours

polyinosinic:polycytidylic acid [poly IC]
equivalent dose in an antiviral assay [1]: 1000 µg/mL | dose sufficient to protect mice from viral infection (viral infection): 20 µg | intracellular fluorescence [2]: no fluorescence was detected
